Data as given in patent US10107794B2, “Methods of using U2-OS cells to identify potential sweet taste modulators” (PepsiCo, Inc., priority 2013, dated 2018).

Columns and labels:
Type in all cases: cell-based
sweet receptor T1R2/T1R3 [1] = target: T1, sweet receptor T1R2/T1R3 (Homo sapiens, UniProt Q7RTX0+Q8TE23); test: pERK1/2 assay in U2-OS cells transfected with Gα15; details: for pERK1/2 activation: U2-OS cells overexpressing Gα15 (6 μl/40,000 cells), 100 mM
T1 construct: Formation of green fluorescent vesicles in TRANSFLUOR U2-OS cells transfected with BacMam encoding Gα15; endogenous in cells; host or cells: TRANSFLUOR U2-OS cells stably expressing β-arrestin-GFP, transfected with BacMam Gα15
T1 sequence (Q8TE23 20-839): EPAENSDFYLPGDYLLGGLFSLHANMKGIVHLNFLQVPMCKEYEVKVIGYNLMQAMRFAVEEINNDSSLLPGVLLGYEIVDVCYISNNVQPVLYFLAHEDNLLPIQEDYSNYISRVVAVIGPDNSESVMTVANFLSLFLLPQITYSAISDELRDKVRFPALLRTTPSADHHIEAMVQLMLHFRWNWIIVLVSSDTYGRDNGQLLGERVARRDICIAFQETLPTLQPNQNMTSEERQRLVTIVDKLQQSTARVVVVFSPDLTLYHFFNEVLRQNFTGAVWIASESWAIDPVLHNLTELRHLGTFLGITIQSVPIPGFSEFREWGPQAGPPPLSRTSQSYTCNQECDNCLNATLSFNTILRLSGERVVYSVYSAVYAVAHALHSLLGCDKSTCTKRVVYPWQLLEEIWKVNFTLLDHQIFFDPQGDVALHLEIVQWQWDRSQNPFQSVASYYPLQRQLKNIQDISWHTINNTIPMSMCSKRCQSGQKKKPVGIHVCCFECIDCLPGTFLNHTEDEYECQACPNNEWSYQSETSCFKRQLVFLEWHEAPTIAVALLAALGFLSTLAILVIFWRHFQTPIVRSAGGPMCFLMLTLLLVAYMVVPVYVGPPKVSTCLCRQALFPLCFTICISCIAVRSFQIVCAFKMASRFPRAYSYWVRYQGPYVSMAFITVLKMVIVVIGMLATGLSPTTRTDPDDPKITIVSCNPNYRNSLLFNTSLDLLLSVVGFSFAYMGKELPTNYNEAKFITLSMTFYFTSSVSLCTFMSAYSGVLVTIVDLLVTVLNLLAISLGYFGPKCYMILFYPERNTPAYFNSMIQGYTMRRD
T1 sequence (Q7RTX0 21-852): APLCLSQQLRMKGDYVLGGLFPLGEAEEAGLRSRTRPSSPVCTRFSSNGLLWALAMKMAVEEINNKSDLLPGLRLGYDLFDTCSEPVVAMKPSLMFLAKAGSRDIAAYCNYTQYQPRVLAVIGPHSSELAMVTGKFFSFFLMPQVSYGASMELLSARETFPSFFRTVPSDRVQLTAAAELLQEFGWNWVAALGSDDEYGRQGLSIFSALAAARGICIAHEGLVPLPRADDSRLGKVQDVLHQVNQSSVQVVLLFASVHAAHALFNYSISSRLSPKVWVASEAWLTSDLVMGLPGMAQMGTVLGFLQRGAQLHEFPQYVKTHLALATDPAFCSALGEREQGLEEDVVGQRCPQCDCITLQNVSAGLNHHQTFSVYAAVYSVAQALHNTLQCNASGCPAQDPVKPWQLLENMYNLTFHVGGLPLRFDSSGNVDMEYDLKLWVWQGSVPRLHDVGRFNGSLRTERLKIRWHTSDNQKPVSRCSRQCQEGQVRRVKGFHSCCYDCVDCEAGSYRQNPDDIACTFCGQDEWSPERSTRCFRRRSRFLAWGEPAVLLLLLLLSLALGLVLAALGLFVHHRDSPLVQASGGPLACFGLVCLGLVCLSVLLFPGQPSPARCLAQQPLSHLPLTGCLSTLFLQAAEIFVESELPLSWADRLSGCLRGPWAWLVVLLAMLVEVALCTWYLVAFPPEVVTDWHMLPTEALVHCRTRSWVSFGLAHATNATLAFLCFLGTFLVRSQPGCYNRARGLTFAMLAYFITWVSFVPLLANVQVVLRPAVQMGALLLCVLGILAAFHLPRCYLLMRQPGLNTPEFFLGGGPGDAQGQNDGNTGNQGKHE
Description: (§1) U2-OS cells were transiently transfected with 0.5-12 μl of BacMam encoding G protein, gustducin (Gα15, Gα16gust44) per 40,000 cells during 24 h or 48 h. Transfected cells were seeded at density of 5,000 cells/well on PDL-coated 384-well plates.
For pERK1/2 studies, growth media was replaced with media without serum for 2 h. U2-OS cells were treated with 100 mM Sweet compounds with or without of U73122 (10 μM) and with or without […] (20 mM). Control groups of cells also received DMSO (0.1%) in medium. The fixed cells were stained with rabbit anti-phospho-p44/p42 MAPK (pERK1/2) antibodies from Cell Signaling Technologies, then with secondary Alexa 488-conjugated antibodies (Life Technology) and HOECHST 33342. Images were acquired on an ImageXpressMicro (MDC) and analyzed with MWCS Module.
The phosphorylation of ERK1/2 is a common downstream event following GPCR activation via the PLCβ2-IP3 pathway. Growth media was replaced with Dulbecco's phosphate buffered saline (DPBS) without serum for 2 h. […] For each data point, average of Mean Cell Integrated intensity and standard deviation are calculated from quadruplicate data points. […]

sweet receptor T1R2/T1R3 [2] = target: T1, sweet receptor T1R2/T1R3; test: Calcium assay (FLIPR) in U2-OS cells transfected with Gα15; details: U2-OS transfected with Gα15 BacMam; 100 mM
Description: as §1
Calcium traces in Fluo-4AM loaded cells were recorded over time in FLIPR^Tetra (MDC) with λEX=470-495 nm and λEM=515-575 nm. The peak increase in fluorescence over baseline was determined and is expressed as relative fluorescence units (RFU).

[3] = target: T2, sweet taste receptor T1R2/T1R3/Gα15 (Homo sapiens, UniProt Q7RTX0+Q8TE23); test: Calcium assay (FLIPR) in JUMP-IN T-REX U2-OS cells with doxycycline-inducible T1R2/T1R3/Gα15; details: U73122
T2 construct: expressed in transfected cells; host or cells: JUMP-IN T-REX U2-OS cells
T2 sequence (Q8TE23 20-839): T1 sequence (Q8TE23 20-839)
T2 sequence (Q7RTX0 21-852): T1 sequence (Q7RTX0 21-852)
Description: JUMP-IN T-REX U2-OS cells were transfected with the PJTI-R4EXP-CMV-TO-T1R3/T1R2/Gα15-pA and JTI-R4 Integrase vectors (Life Technology).
The peak increase in fluorescence over baseline was determined and is expressed as relative fluorescence units (RFU).

sweet receptor T1R2/T1R3 [4] = target: T1, sweet receptor T1R2/T1R3; test: pERK1/2 assay in parental U2-OS cells (high content imaging); details: 100 mM, 5, 15 and 30 minutes
Description: U2-OS cells were grown in McCoy media supplemented with 10% fetal bovine serum. Cells were seeded at density of 5,000 cells/well on PDL-coated 384-well plates.
For pERK1/2 studies, growth media was replaced with media without serum for 2 h. […] (20 mM). Control groups of cells also received DMSO (0.1%) in medium. […] Images were acquired on an ImageXpressMicro (MDC) and analyzed with MWCS Module.
The phosphorylation of ERK1/2 is a common downstream event following GPCR activation via the PLCβ2-IP3 pathway. Growth media was replaced with Dulbecco's phosphate buffered saline (DPBS) without serum for 2 h. […] For each data point, average of Mean Cell Integrated intensity and standard deviation are calculated from quadruplicate data points.

Ca2+ response (sweet receptor T1R2/T1R3 [2]) | Compound | pERK1/2 activation (sweet receptor T1R2/T1R3 [1]) | other results
 | OC[C@H]1O[C@H](O[C@H]2[C@H](O)[C@@H](O)C(O)O[C@@H]2CO)[C@H](O)[C@@H](O)[C@@H]1O (mixture of isomers) [maltose] | increased pERK1/2 activity | 
significantly increased Ca^(2+) response | O=C(CO)[C@@H](O)[C@H](O)[C@H](O)CO [D-fructose] |  | 
significantly increased Ca^(2+) response | OC[C@H]1O[C@@](CO)(O[C@H]2O[C@H](CO)[C@@H](O)[C@H](O)[C@H]2O)[C@@H](O)[C@@H]1O [sucrose] |  | 
 | COc1ccc2c(c1)CC[C@@H]1[C@@H]2CC[C@]2(C)[C@@H](NCCCCCCN3C(=O)C=CC3=O)CC[C@@H]12 [U73122] |  | Blockade of pERK1/2 activation (sweet receptor T1R2/T1R3 [1]; U73122 10 μM, U2-OS cells transfected with Gα15): blocked; Effect on Ca2+ release upon treatment with D-glucose and D-fructose [3]: abolished; Effect on Ca2+ response after stimulation with sucrose and sucralose [3]: had no effect
significantly increased Ca^(2+) response | O=C[C@H](O)[C@@H](O)[C@H](O)[C@H](O)CO [D-glucose] | induced pERK1/2 activation in a time-dependent manner | pERK1/2 activation (sweet receptor T1R2/T1R3 [1]; listed as glucose): increased pERK1/2 activity; pERK1/2 activation (sweet receptor T1R2/T1R3 [4]): induced pERK1/2 activation in a time-dependent manner; pERK1/2 activation (sweet receptor T1R2/T1R3 [4]; listed as glucose): activates pERK1/2
induced Ca^(2+) response | OC[C@H]1O[C@H](O[C@]2(CCl)O[C@H](CCl)[C@@H](O)[C@@H]2O)[C@H](O)[C@@H](O)[C@H]1Cl [sucralose] |  | 
